Measurements taken from PubChem BioAssay (NCI).
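1) Cells in 96-well plates. 2) Compound, 48 h, 5 concentrations. 3) Linear interpolation between surrounding doses. 4) Unreached endpoint = highest concentration. TGI is the concentration that stops growth completely.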

What was measured:
Assay in all cases: NCI anticancer screen, dose series, 48 h
[1] = test system: DU-145 prostate
[2] = test system: HCT-116 colon
[3] = test system: HOP-62 NSCLC
[4] = test system: SK-MEL-2 melanoma
[5] = test system: SR leukemia
[6] = test system: UACC-62 melanoma
[7] = test system: A498 renal
[8] = test system: COLO 205 colon
[9] = test system: PC-3 prostate
[10] = test system: MOLT-4 leukemia
[11] = test system: MDA-N
[12] = test system: K-562 leukemia
[13] = test system: EKVX NSCLC
[14] = test system: BT-549 breast
[15] = test system: SK-OV-3 ovarian
[16] = test system: T-47D breast

Compound	TGI [1]	TGI [2]	TGI [3]	TGI [4]	TGI [5]	TGI [6]	TGI [7]	TGI [8]	TGI [9]	TGI [10]	TGI [11]	TGI [12]	TGI [13]	TGI [14]	TGI [15]	TGI [16]
COc1cccc(C2C3=C(COC3=O)Oc3cc4c(cc32)OCO4)c1 (configuration not stated)	6.77 µM	> 31.6 µM	> 14 µM	> 100 µM	> 100 µM	> 100 µM	1.27 µM	0.631 µM	> 100 µM	14.1 µM	< 0.0202 µM	6.11 µM	> 58 µM	> 100 µM	–	–
COC(=O)[C@@H]1C[C@@H]2c3ccccc3N(S(=O)(=O)c3ccccc3)[C@@H]2N1C(=O)OC	> 100 µM	> 100 µM	> 100 µM	> 100 µM	> 100 µM	> 100 µM	–	> 100 µM	> 100 µM	> 100 µM	> 100 µM	> 100 µM	> 100 µM	> 100 µM	> 100 µM	–
COC(=O)c1ccccc1/C=C1\Cc2cc(C)c(C)cc2C1=O	> 100 µM	> 100 µM	85.8 µM	68.3 µM	> 100 µM	> 100 µM	> 100 µM	> 100 µM	> 100 µM	> 100 µM	> 100 µM	> 100 µM	> 100 µM	> 100 µM	–	> 100 µM
O=C(c1cccc(C(=O)c2ccc3c4c(cccc24)C(=O)N(c2ccccc2)C3=O)c1)c1ccc2c3c(cccc13)C(=O)N(c1ccccc1)C2=O	> 100 µM	> 100 µM	> 100 µM	–	–	> 100 µM	69.5 µM	> 100 µM	> 100 µM	> 100 µM	> 100 µM	> 100 µM	> 100 µM	> 100 µM	> 100 µM	–
CCS(=O)(=O)CCn1cnc2c1c(=O)n(C)c(=O)n2C	> 100 µM	> 100 µM	> 100 µM	> 100 µM	–	> 100 µM	> 100 µM	> 100 µM	> 100 µM	> 100 µM	> 100 µM	> 100 µM	> 100 µM	> 100 µM	–	> 100 µM
Cc1ccc(S(=O)(=O)NC(=O)Nc2ccc(S(N)(=O)=O)cc2S(N)(=O)=O)cc1	> 100 µM	> 100 µM	> 100 µM	> 100 µM	–	> 100 µM	–	> 100 µM	> 100 µM	> 100 µM	> 100 µM	> 100 µM	> 100 µM	> 100 µM	> 100 µM	–
O=C(/C=C/c1ccc(O)c(O)c1O)OCCc1ccccc1	> 100 µM	26.3 µM	55.5 µM	> 100 µM	40.6 µM	> 100 µM	> 100 µM	64.5 µM	> 100 µM	53.8 µM	34 µM	37.3 µM	> 100 µM	–	> 100 µM	> 100 µM
COc1c(O)c2c(=O)cc(OC)c3c4c(OC)cc(=O)c5c(O)c(OC)c6c(c(c1C(C(C)=O)C6C(C)O)c23)c54 (configuration not stated)	1.74 µM	3.06 µM	0.632 µM	–	1.93 µM	1.01 µM	28.3 µM	–	0.971 µM	0.443 µM	2.34 µM	–	4.55 µM	–	2.49 µM	1.64 µM
O=C(c1ccc(Br)cc1)n1c2ccc(Br)cc2c2nc3ccccc3nc21	> 100 µM	> 100 µM	> 100 µM	> 100 µM	> 100 µM	> 100 µM	–	> 100 µM	> 100 µM	> 100 µM	> 100 µM	> 100 µM	> 100 µM	> 100 µM	–	> 100 µM
CN(CCCNC(=O)c1nn(-c2ccc(Cl)cc2Cl)c2c1ccc1ccccc12)CCCNC(=O)c1nn(-c2ccc(Cl)cc2Cl)c2c1ccc1ccccc12	3.18 µM	3.07 µM	3.31 µM	3.09 µM	1.58 µM	3.03 µM	2.77 µM	3.71 µM	3.08 µM	3.63 µM	3.18 µM	2.83 µM	3.29 µM	–	3.49 µM	3.73 µM
CCc1c(Cc2cc(C)cc(C)c2)n2c(nc1=O)SCC2CBr (configuration not stated)	> 50 µM	> 50 µM	–	> 50 µM	> 50 µM	> 50 µM	> 50 µM	> 50 µM	> 50 µM	> 50 µM	> 50 µM	> 50 µM	> 50 µM	> 50 µM	–	> 50 µM
CC#CCCN(CC#N)Cc1ccccc1	> 100 µM	> 100 µM	> 100 µM	> 100 µM	> 100 µM	32.9 µM	37.2 µM	> 100 µM	> 100 µM	> 100 µM	> 100 µM	> 100 µM	> 100 µM	–	> 100 µM	> 100 µM
COc1ccc(C2SC(C)C(=O)N2c2nc(-c3nc(-c4ccc(Cl)cc4)cs3)cs2)cc1 (configuration not stated)	–	> 100 µM	> 100 µM	–	> 100 µM	> 100 µM	–	> 100 µM	> 100 µM	> 100 µM	> 100 µM	> 100 µM	> 100 µM	> 100 µM	> 100 µM	> 100 µM
Cc1ccc(S(=O)(=O)Oc2nc3ccccc3nc2N(S(=O)(=O)c2ccc(C)cc2)S(=O)(=O)c2ccc(C)cc2)cc1	> 100 µM	> 100 µM	–	> 100 µM	–	> 100 µM	> 100 µM	> 100 µM	> 100 µM	> 100 µM	> 100 µM	–	> 100 µM	> 100 µM	> 100 µM	–
CC(=O)OC1CC[C@]2(C)C3CC[C@@]4(C)C(CCC4[C@H](C)CCCC(C)C)[C@@H]3CCC2(Br)C1 (some centres not stated)	> 50 µM	16.5 µM	> 50 µM	–	24.8 µM	> 50 µM	18 µM	20.9 µM	37.7 µM	28 µM	> 50 µM	35.2 µM	> 50 µM	–	> 50 µM	> 50 µM
Cc1cn(C2CC(N)C(C(=O)O)O2)c(=O)[nH]c1=O (configuration not stated)	> 100 µM	> 100 µM	> 100 µM	> 100 µM	> 100 µM	> 100 µM	> 100 µM	> 100 µM	> 100 µM	> 100 µM	> 100 µM	> 100 µM	> 100 µM	> 100 µM	> 100 µM	–
